# Results as given in patent publication US8178506B2, “Oligomeric compounds and compositions for use in modulation of small non-coding RNAs” (Regulus Therapeutics Inc., priority 2003, dated 2012).
# In the oligonucleotide strings, read from the 5' end, every base follows the letter of its sugar. An asterisk marks phosphorothioate; unmarked linkages are phosphodiester. Other units and linkages are bracketed, terminal groups are in braces. A string of capitals states the bases alone. e = 2'-O-(2-methoxyethyl) (MOE); [5mC] = 5-methylcytosine; d = 2'-deoxy (DNA)
# What was measured:
# mir-30a pri-miRNA = assay: mir-30a luciferase reporter (pGL3C-M30-4X) assay in 293T cells; type: cell-based, human; settings: 150 nM oligomeric compound, then mir-30a pri-miRNA mimic 200 nM, pGL3C-M30-4X normalized to pRL-CMV
# Text: In one embodiment of the invention, oligomeric compounds targeting the hairpin structure of mir-30a pri-miRNA were designed and tested for their effects on miRNA signaling in 293T cells (American Type Culture Collection (Manassas, Va.)).
# A synthetic DNA fragment comprised of four tandem repeats of the target site for mir-30a was cloned into the vector pGL3-C (purchased from Promega Corp., Madison Wis.) at the unique XbaI site (pGL3C-M30-4X). This places the target site in the 3′UTR of the luciferase reporter vector. An oligomeric compound mimicking the mir-30a pri-miRNA ([…] […], herein incorporated as SEQ ID NO: 1749) was in vitro transcribed using T7 RNA polymerase and a DNA template produced by PCR (the T7 promoter is shown in bold).
# On the day prior to the experiment 24-well plates were seeded with 293T cells at 50% confluency. The following morning cells were treated with oligomeric compounds targeted to the mir-30a pri-miRNA mimic. All of the compounds are 20 nucleobases in length having either a phosphorothioate backbone throughout (PS) or a phosphodiester backbone throughout (PO). […] All cytidine residues are 5-methylcytidines. The remaining compounds in the table have 2′-methoxyethoxy (MOE) nucleotides throughout with either a phosphorothioate (PS) or phosphodiester (PO) internucleoside linkages.
# Cells were washed once with PBS then oligomeric compounds were added to triplicate wells at 150 nM in OPTI-MEM™ media and 4.5 μl/ml LIPOFECTIN™ reagent (Invitrogen Corporation, Carlsbad, Calif.). After 3 hours, the media was removed, and the cells were treated with the mir-30a pri-miRNA mimic at 200 nM in OPTI-MEM™ with 6 μl/ml LIPOFECTIN™ reagent. After 3 hours the media was removed from the cells. The reporter plasmid, pGL3C-M30-4X, was then transfected using SuperFect reagent. 20 μg of pGL3C-M30-4X and 2 μg of pRL-CMV, a plasmid expressing Renilla luciferase, were suspended in 600 μL of serum-free DMEM to which 120 μl of Superfect was added. After a 5 minute incubation, 6 mls of DMEM+10% FCS was added. 125 μL of the plasmid/SuperFect suspension was added to each well. After a 2 hour incubation cells were washed and fresh growth media added. Cells were incubated overnight.
# The following morning the media was removed and the cells were lysed in 120 μL passive lysis buffer (PLB; Promega). 40 μL of the lysate was then assayed for Photinus (PL) and Renilla (RL) luciferases using a Dual Luciferase Assay kit (Promega) according to the manufacturer's protocol. The results below are given as percent pGL3C-M30-4× expression (PL) normalized to pRL-CMV expression (RL). The 20-nucleobase oligonucleotide random-mer ISIS Number 29848 was used as a negative control.
# ob/ob mice = assay: ob/ob mice: plasma parameters, food consumption, marker gene mRNA; type: in vivo, mouse; settings: six week old ob/ob mice, 25 mg/kg twice weekly for four weeks
# Text: Leptin is a hormone produced by fat cells that regulates appetite. Deficiencies in this hormone in both humans and non-human animals leads to obesity. ob/ob mice have a mutation in the leptin gene which results in obesity and hyperglycemia. As such, these mice are a useful model for the investigation of obesity and diabetes and treatments designed to treat these conditions. ob/ob mice have higher circulating levels of insulin and are less hyperglycemic than db/db mice, which harbor a mutation in the leptin receptor. In accordance with the present invention, the oligomeric compounds of the invention are tested in the ob/ob model of obesity and diabetes.
# Seven-week old male C57B1/6J-Lep ob/ob mice (Jackson Laboratory, Bar Harbor, Me.) are fed a diet with a fat content of 10-15% and are subcutaneously injected with the oligomeric compounds of the invention or a control compound at a dose of 25 mg/kg two times per week for 4 weeks. Saline-injected animals, leptin wildtype littermates (i.e. lean littermates) and ob/ob mice fed a standard rodent diet serve as controls. After the treatment period, mice are sacrificed and target levels are evaluated in liver, brown adipose tissue (BAT) and white adipose tissue (WAT). RNA isolation and target RNA expression level quantitation are performed as described by other examples herein.
# To assess the physiological effects resulting from modulation of target, the ob/ob mice are evaluated at the end of the treatment period for serum lipids, serum free fatty acids, serum cholesterol (CHOL), liver triglycerides, fat tissue triglycerides and liver enzyme levels. Hepatic steatosis, or clearing of lipids from the liver, is assessed by measuring the liver triglyceride content. Hepatic steatosis is assessed by routine histological analysis of frozen liver tissue sections stained with oil red O stain, which is commonly used to visualize lipid deposits, and counterstained with hematoxylin and eosin, to visualize nuclei and cytoplasm, respectively.
# The effects of target modulation on glucose and insulin metabolism are evaluated in the ob/ob mice treated with the oligomeric compounds of the invention. Plasma glucose is measured at the start of the treatment and after 2 weeks and 4 weeks of treatment. Plasma insulin is similarly measured at the beginning of the treatment, and following at 2 weeks and at 4 weeks of treatment. Glucose and insulin tolerance tests are also administered in fed and fasted mice. Mice receive intraperitoneal injections of either glucose or insulin, and the blood glucose and insulin levels are measured before the insulin or glucose challenge and at 15, 20 or 30 minute intervals for up to 3 hours.
# The ob/ob mice that receive treatment are evaluated at the end of the treatment period for the effects of target modulation on the expression of genes that participate in lipid metabolism, cholesterol biosynthesis, fatty acid oxidation, fatty acid storage, gluconeogenesis and glucose metabolism. These genes include, but are not limited to, HMG-CoA reductase, acetyl-CoA carboxylase 1 and acetyl-CoA carboxylase 2, camitine palmitoyltransferase I and glycogen phosphorylase, glucose-6-phosphatase and phosphoenolpyruvate carboxykinase 1, lipoprotein lipase and hormone sensitive lipase. mRNA levels in liver and white and brown adipose tissue are quantitated by real-time PCR as described in other examples herein, employing primer/probe sets that are generated using published sequences of each gene of interest.
# As described herein, leptin-deficient (ob/ob) mice, leptin receptor-deficient (db/db) mice and diet-induced obesity (DIO) mice are used to model obesity and diabetes. In accordance with the present invention, oligomeric compounds targeting mir-143, mir-131 (also known as mir-9) and mir-203 were tested in the ob/ob and db/db models. […]
# HepG2 cells = assay: Insulin signaling assay in HepG2 cells, marker genes taken together; type: cell-based, human; settings: for mRNA levels of the IGFBP-1 and follistatin genes / expression of the IGFBP-1, PEPCK-c and follistatin marker genes: HepG2, 1 nM insulin; for expression of the IGFBP-1 and follistatin marker genes / IGFBP-1 and PEPCK-c marker genes: HepG2, basal (no insulin); for expression of the IGFBP-1, PEPCK-c and follistatin marker genes: 100 nM
# PEPCK-c = PEPCK-c mRNA expression in HepG2 cells; type: cell-based, human; settings: 100 nM; for reduction of PEPCK-c mRNA expression: HepG2, 1 nM insulin
# [1] = tested on: preadipocytes / differentiating adipocytes; assay: Adipocyte differentiation assay, markers taken together; type: cell-based, human
# HuVECs = assay: Endothelial tube formation assay in HuVECs; settings: 75 nM
# T47D cells = assay: Caspase-3 activity assay (apoptosis) in T47D cells; settings: caspase assay, 200 nM; conclusion from Tables 9-12
# adipocytes = assay: Triglyceride accumulation assay in adipocytes; type: cell-based, human; settings: preadipocytes, 250 nM, day nine
# leptin = assay: Leptin secretion by adipocytes (ELISA); type: cell-based, human; settings: preadipocytes, 250 nM, day nine
# Description: Leptin secretion into the medium in which adipocytes are cultured is measured by protein ELISA. On day nine post-transfection, 96-well plates are coated with a monoclonal antibody to human leptin (R&D Systems, Minneapolis, Minn.) and left at 4° C. overnight. The plates are blocked with bovine serum albumin (BSA), and a dilution of the treated adipoctye medium is incubated in the plate at room temperature for approximately 2 hours. After washing to remove unbound components, a second monoclonal antibody to human leptin (conjugated with biotin) is added. The plate is then incubated with strepavidin-conjugated horse radish peroxidase (HRP) and enzyme levels are determined by incubation with 3, 3′,5,5′-tetramethlybenzidine, which turns blue when cleaved by HRP. The OD450 is read for each well, where the dye absorbance is proportional to the leptin concentration in the cell lysate.
# Leptin is also a marker for differentiated adipocytes. In the adipocyte assay, leptin secretion into the media above the differentiated adipocytes was measured by protein ELISA. Cell growth, transfection and differentiation procedures were carried out as described for the Triglyceride accumulation assay (see below). On day nine post-transfection, 96-well plates were coated with a monoclonal antibody to human leptin (R&D Systems, Minneapolis, Minn.) and left at 4° C. overnight. The plates were blocked with bovine serum albumin (BSA), and a dilution of the media was incubated in the plate at RT for 2 hours. After washing to remove unbound components, a second monoclonal antibody to human leptin (conjugated with biotin) was added. The plate was then incubated with strepavidin-conjugated horseradish peroxidase (HRP) and enzyme levels are determined by incubation with 3, 3′, 5,5′-Tetramethlybenzidine, which turns blue when cleaved by HRP. The OD450 was read for each well, where the dye absorbance is proportional to the leptin concentration in the cell lysate. Results are expressed as a percent±standard deviation relative to transfectant-only controls.
substance,measurement,setting,value
"328087 (antisense AAGCCCATCTGTGGCTTCAC; all 2'-MOE, all phosphorothioate, methylation of C not given here; pseudo half-knot design targeting pri-miRNA hairpin) [compound 328087]",percent control luciferase expression,mir-30a pri-miRNA,83 percent control
"GAAACCCAGCAGACAATGTAGCT (anti-miR; chemistry not fully specified) [ISIS 345384, PS 2′-MOE 5-10-8 gapmer; targets mir-221]",plasma glucose levels in the fed state,ob/ob mice,reductions in plasma glucose levels in the fed state at weeks two and four
ISIS 328761: oligomeric compound targeting hypothetical mir-138 (antisense eG*e[5mC]*eA*eG*eG*d[5mC]*dT*dA*dA*dA*dA*dG*dA*dA*dA*eT*eA*eA*eG*e[5mC]),mRNA levels of the IGFBP-1 and follistatin genes,HepG2 cells,also reduced
same,reduction of PEPCK-c mRNA expression,PEPCK-c,45%
same,decrease in PEPCK-c mRNA,"PEPCK-c; HepG2, basal (no insulin)",52%
328088 (antisense eA*eA*eG*e[5mC]*e[5mC]*d[5mC]*dA*dT*d[5mC]*dT*dG*dT*dG*dG*d[5mC]*eT*eT*e[5mC]*eA*e[5mC]) [compound 328088],percent control luciferase expression,mir-30a pri-miRNA,107 percent control
"ACAGGCCGGGACAAGTGCAATA (anti-miR; chemistry not fully specified) [ISIS 327897, uniform 2′-MOE PS; targets mir-92-1]",5 markers of adipocyte differentiation,"[1]; differentiating adipocytes, % of UTC (Table 75)",significant reduction in expression of 4 of the 5 markers of differentiation
same,expression of the IGFBP-1 and follistatin marker genes,HepG2 cells,increased expression of the IGFBP-1 and follistatin marker genes
"CAGCCGCTGTCACACGCACAG (anti-miR; chemistry not fully specified) [ISIS 327959, uniform 2′-MOE PS; targets mir-210]",tube formation,HuVECs,suppressed tube formation
same,IGFBP-1 and PEPCK-c marker genes,HepG2 cells,increases in the IGFBP-1 and PEPCK-c marker genes
"GGGGTATTTGACAAACTGACA (anti-miR; chemistry not fully specified) [ISIS 327961, uniform 2′-MOE PS; targets mir-223]","expression of the IGFBP-1, PEPCK-c and follistatin marker genes",HepG2 cells,"increased expression of the IGFBP-1, PEPCK-c and follistatin marker genes"
same,expression of the IGFBP-1 and follistatin marker genes,HepG2 cells,increased expression of the IGFBP-1 and follistatin marker genes
ISIS 328377: 5-10-5 2′-MOE gapmer PS; targets hypothetical miRNA-030 pri-miRNA (eT*e[5mC]*eA*e[5mC]*eT*d[5mC]*d[5mC]*dT*dA*dA*dA*dG*dG*dT*dT*e[5mC]*eA*eA*eG*eT),"expression of the IGFBP-1, PEPCK-c and follistatin marker genes",HepG2 cells,"increased expression of the IGFBP-1, PEPCK-c and follistatin marker genes"
same,apoptosis in T47D cells,T47D cells,prevent or have a protective effect from apoptosis
ISIS 328765: oligomeric compound targeting mir-215 (antisense eG*eA*e[5mC]*eA*eA*dA*d[5mC]*dT*d[5mC]*dA*dG*d[5mC]*dT*dA*dT*eA*eT*eT*eG*eT),mRNA levels of the IGFBP-1 and follistatin genes,HepG2 cells,also reduced
same,reduction of PEPCK-c mRNA expression,PEPCK-c,27%
"ISIS 341802: SEQ ID NO: 1806, targeting mir-191 (antisense AGCUGCUUUUGGGAUUCCGUUG; all 2'-MOE, all phosphorothioate, methylation of C and T or U not given here)",expression of the IGFBP-1 and follistatin marker genes,HepG2 cells,increased expression of the IGFBP-1 and follistatin marker genes
"ISIS 341803: SEQ ID NO: 760, targeting mir-206 (antisense CCACACACTTCCTTACATTCCA; all 2'-MOE, all phosphorothioate, methylation of C not given here)",IGFBP-1 and PEPCK-c marker genes,HepG2 cells,increases in the IGFBP-1 and PEPCK-c marker genes
TCACAAGTTAGGGTCTCAGGGA [ISIS 327939],triglyceride accumulation,adipocytes,decrease in triglyeride accumulation
same,expression of the four adipocyte differentiation hallmark genes,"[1]; preadipocytes, 250 nM, day nine",decrease in the expression of all four adipocyte differentiation hallmark genes
same,"expression of the IGFBP-1, PEPCK-c and follistatin marker genes",HepG2 cells,"increased expression of the IGFBP-1, PEPCK-c and follistatin marker genes"
same,Leptin (secretion),leptin,significant increase in leptin secretion
"TAGCTGGTTGAAGGGGACCAA (anti-miR; chemistry not fully specified) [ISIS 327925, uniform 2′-MOE PS; targets mir-133b]",tube formation,HuVECs,suppressed tube formation
same,"expression of the IGFBP-1, PEPCK-c and follistatin marker genes",HepG2 cells,"increased expression of the IGFBP-1, PEPCK-c and follistatin marker genes"
